# Source: ChEMBL document CHEMBL1158908, “Diyne Enol Ethers of Glycerol from a New Zealand Sponge, Petrosia hebes” (1990)
# Tested on: P388
# Experiment: Cytotoxicity against mouse P388 cells
# Type: functional
# Conditions: read-out: ID50 (the source's name)
row,SMILES,IC50 [µg/mL]
1,CCCCCCCCCC(O)C#CC#C/C=C\OCC(O)CO (configuration not stated),> 11
2,CC(C)CCCCCC(O)C#CC#C/C=C\OCC(O)CO (configuration not stated),> 6
